Test results from patent US8962842B2, “2-pyridone antimicrobial compositions” (priority 2010, dated 2015).
Like-named read-outs stand apart in the source and are kept apart here.

Experiments:
[1] = test system: Enterococcus faecalis (5 strains); assay: MIC range, broader panel of Quotient Bioresearch strains (Table 3); details: for MIC50: read-out: MIC Range Median, Enterococcus faecalis (5 strains)
[2] = test system: Streptococcus pyogenes (4 strains); assay: as above; details: for MIC50: read-out: MIC Range Median, Streptococcus pyogenes (4 strains)
[3] = test system: Burkholderia cepacia (5 strains); assay: MIC range, broader panel of Quotient Bioresearch strains (Table 4); assay type: cell-based; details: for MIC50: read-out: MIC Range Median, Burkholderia cepacia (5 strains)
[4] = test system: Haemophilus influenza (5 strains); assay: as above; assay type: cell-based, Haemophilus influenzae; details: for MIC50: 16 h, Median of the strain panel
[5] = test system: Acinetobacter baumannii (12 strains); assay: as above; assay type: cell-based; details: for MIC50: read-out: MIC Range Median, Acinetobacter baumannii (12 strains)
[6] = test system: Enterococcus faecium (3 strains); assay: MIC range, broader panel of Quotient Bioresearch strains (Table 3); details: for MIC50: read-out: MIC Range Median, Enterococcus faecium (3 strains)
[7] = test system: Staphylococcus aureus (16 strains); assay: as above; details: for MIC50: read-out: MIC Range Median, Staphylococcus aureus (16 strains)
[8] = test system: Group C Streptococcus (4 strains); assay: as above; details: for MIC50: read-out: MIC Range Median, Group C Streptococcus (4 strains)
[9] = test system: Escherichia coli (6 strains); assay: MIC range, broader panel of Quotient Bioresearch strains (Table 4); assay type: cell-based; details: for MIC50: read-out: MIC Range Median, Escherichia coli (6 strains)
[10] = test system: Klebsiella pneumonia (4 strains); assay: as above; assay type: cell-based; details: Klebsiella pneumoniae; for MIC50: read-out: MIC Range Median, Klebsiella pneumonia (4 strains)
[11] = test system: Pseudomonas aeruginosa (12 strains); assay: as above; assay type: cell-based; details: for MIC50: read-out: MIC Range Median, Pseudomonas aeruginosa (12 strains)
[12] = test system: Streptococcus pneumonia (5 strains); assay: MIC range, broader panel of Quotient Bioresearch strains (Table 3); details: Streptococcus pneumoniae; for MIC50: read-out: MIC Range Median, Streptococcus pneumonia (5 strains)
[13] = read-out: MIC Range High, Enterococcus faecalis (5 strains)
[14] = read-out: MIC Range Low, Enterococcus faecalis (5 strains)
[15] = read-out: MIC Range High, Streptococcus pyogenes (4 strains)
[16] = read-out: MIC Range Low, Streptococcus pyogenes (4 strains)
[17] = read-out: MIC Range High, Burkholderia cepacia (5 strains)
[18] = read-out: MIC Range Low, Burkholderia cepacia (5 strains)
[19] = High of the strain panel, read-out: MIC Range High, Haemophilus influenza (5 strains)
[20] = Low of the strain panel, read-out: MIC Range Low, Haemophilus influenza (5 strains)
[21] = read-out: MIC Range High, Acinetobacter baumannii (12 strains)
[22] = read-out: MIC Range Low, Acinetobacter baumannii (12 strains)
[23] = read-out: MIC Range High, Enterococcus faecium (3 strains)
[24] = read-out: MIC Range Low, Enterococcus faecium (3 strains)
[25] = read-out: MIC Range High, Staphylococcus aureus (16 strains)
[26] = read-out: MIC Range Low, Staphylococcus aureus (16 strains)
[27] = read-out: MIC Range High, Group C Streptococcus (4 strains)
[28] = read-out: MIC Range Low, Group C Streptococcus (4 strains)
[29] = read-out: MIC Range High, Escherichia coli (6 strains)
[30] = read-out: MIC Range Low, Escherichia coli (6 strains)
[31] = read-out: MIC Range High, Klebsiella pneumonia (4 strains)
[32] = read-out: MIC Range Low, Klebsiella pneumonia (4 strains)
[33] = read-out: MIC Range High, Pseudomonas aeruginosa (12 strains)
[34] = read-out: MIC Range Low, Pseudomonas aeruginosa (12 strains)
[35] = read-out: MIC Range High, Streptococcus pneumonia (5 strains)
[36] = read-out: MIC Range Low, Streptococcus pneumonia (5 strains)

| Compound | MIC [1, 13] [µg/mL] | MIC [1, 14] [µg/mL] | MIC50 [1] [µg/mL] | MIC [2, 15] [µg/mL] | MIC [2, 16] [µg/mL] | MIC50 [2] [µg/mL] | MIC [3, 17] [µg/mL] | MIC [3, 18] [µg/mL] | MIC50 [3] [µg/mL] | MIC50 [4] [µg/mL] | MIC [4, 19] [µg/mL] | MIC [4, 20] [µg/mL] | MIC [5, 21] [µg/mL] | MIC [5, 22] [µg/mL] | MIC50 [5] [µg/mL] | MIC [6, 23] [µg/mL] | MIC [6, 24] [µg/mL] | MIC50 [6] [µg/mL] | MIC [7, 25] [µg/mL] | MIC [7, 26] [µg/mL] | other results |
| --- | --- | --- | --- | --- | --- | --- | --- | --- | --- | --- | --- | --- | --- | --- | --- | --- | --- | --- | --- | --- | --- |
| Cc1c(-c2ccncc2)ccn2c(=O)c(C(=O)[O-])cc(C3CC3)c12.[K+] [Example 16 K salt, potassium 1-cyclopropyl-9-methyl-4-oxo-8-(pyridin-4-yl)-4H-quinolizine-3-carboxylate] | 8 | 0.25 | 0.25 | 1 | 0.25 | 0.375 | 0.5 | 0.25 | 0.25 | ≤ 0.015 | ≤ 0.015 | ≤ 0.015 | > 32 | 0.12 | 16 | 16 | 1 | 8 | 1 | ≤ 0.015 | MIC50 [7]: 1 µg/mL; MIC [8, 27]: 0.5 µg/mL; MIC [8, 28]: 0.25 µg/mL; MIC50 [8]: 0.25 µg/mL; MIC [9, 29]: > 32 µg/mL; MIC [9, 30]: 0.03 µg/mL; MIC50 [9]: > 32 µg/mL; MIC [10, 31]: > 32 µg/mL; MIC [10, 32]: 0.12 µg/mL; MIC50 [10]: 16 µg/mL; MIC [11, 33]: > 32 µg/mL; MIC [11, 34]: 2 µg/mL; MIC50 [11]: 16 µg/mL; MIC [12, 35]: 1 µg/mL; MIC [12, 36]: 0.5 µg/mL; MIC50 [12]: 0.5 µg/mL |
| Cc1c(-c2ccc(C(N)=O)cc2)c(F)cn2c(=O)c(C(=O)[O-])cc(C3CC3)c12.[K+] [Example 6 K salt, potassium 8-(4-carbamoyl-phenyl)-1-cyclopropyl-7-fluoro-9-methyl-4-oxo-4H-quinolizine-3-carboxylate] | 4 | 0.12 | 0.25 | 0.25 | 0.12 | 0.12 | 4 | 1 | 2 | 0.03 | 0.06 | 0.03 | > 32 | 1 | > 32 | 8 | 1 | 2 | 1 | 0.03 | MIC50 [7]: 0.5 µg/mL; MIC [8, 27]: 0.12 µg/mL; MIC [8, 28]: 0.06 µg/mL; MIC50 [8]: 0.12 µg/mL; MIC [9, 29]: > 32 µg/mL; MIC [9, 30]: 0.25 µg/mL; MIC50 [9]: > 32 µg/mL; MIC [10, 31]: > 32 µg/mL; MIC [10, 32]: 1 µg/mL; MIC50 [10]: > 32 µg/mL; MIC [11, 33]: > 32 µg/mL; MIC [11, 34]: 8 µg/mL; MIC50 [11]: > 32 µg/mL; MIC [12, 35]: 0.25 µg/mL; MIC [12, 36]: 0.25 µg/mL; MIC50 [12]: 0.25 µg/mL |
| Cc1c(-c2ccc(N)c(F)c2)c(F)cn2c(=O)c(C(=O)[O-])cc(C3CC3)c12.[K+] [Example 1 K salt, potassium 8-(4-amino-3-fluoro-phenyl)-1-cyclopropyl-7-fluoro-9-methyl-4-oxo-4H-quinolizine-3-carboxylate] | 4 | 0.12 | 0.12 | 1 | 0.5 | 0.5 | 2 | 0.5 | 1 | ≤ 0.015 | 0.03 | ≤ 0.015 | > 32 | 0.25 | 20 | 8 | 1 | 2 | 0.5 | ≤ 0.015 | MIC50 [7]: 0.5 µg/mL; MIC [8, 27]: 0.5 µg/mL; MIC [8, 28]: 0.12 µg/mL; MIC50 [8]: 0.25 µg/mL; MIC [9, 29]: > 32 µg/mL; MIC [9, 30]: 0.06 µg/mL; MIC50 [9]: > 32 µg/mL; MIC [10, 31]: > 32 µg/mL; MIC [10, 32]: 0.5 µg/mL; MIC50 [10]: 16 µg/mL; MIC [11, 33]: 32 µg/mL; MIC [11, 34]: 2 µg/mL; MIC50 [11]: 16 µg/mL; MIC [12, 35]: 0.5 µg/mL; MIC [12, 36]: 0.5 µg/mL; MIC50 [12]: 0.5 µg/mL |
| Cc1c(-c2ccc(N)cc2)c(F)cn2c(=O)c(C(=O)[O-])cc(C3CC3)c12.[K+] [Example 5 K salt, potassium 8-(4-amino-phenyl)-1-cyclopropyl-7-fluoro-9-methyl-4-oxo-4H-quinolizine-3-carboxylate] | 1 | 0.03 | 0.06 | 0.5 | 0.12 | 0.12 | 0.5 | 0.12 | 0.25 | ≤ 0.015 | ≤ 0.015 | ≤ 0.015 | 16 | 0.06 | 6 | 4 | 0.25 | 1 | 0.25 | ≤ 0.015 | MIC50 [7]: 0.12 µg/mL; MIC [8, 27]: 0.12 µg/mL; MIC [8, 28]: 0.06 µg/mL; MIC50 [8]: 0.06 µg/mL; MIC [9, 29]: 16 µg/mL; MIC [9, 30]: 0.03 µg/mL; MIC50 [9]: 8 µg/mL; MIC [10, 31]: 16 µg/mL; MIC [10, 32]: 0.12 µg/mL; MIC50 [10]: 10 µg/mL; MIC [11, 33]: 16 µg/mL; MIC [11, 34]: 1 µg/mL; MIC50 [11]: 4 µg/mL; MIC [12, 35]: 0.25 µg/mL; MIC [12, 36]: 0.12 µg/mL; MIC50 [12]: 0.12 µg/mL |
